Tested on: callose deposition
Assay: Callose deposition in plants tested with Peronospora parasitica
Format: in vivo, Arabidopsis
Details: treatment with BABA, positive control

CC(N)CC(=O)O (stereo not drawn) [BABA, β-aminobutyric acid]
callose deposition: increased

From patent publication US8642837B2, “Method to increase pathogen resistance in plants” (Expressive Research B.V., priority 2004, dated 2014)
